Assay results taken from PubChem BioAssay AID1259408 (Genetic Toxicology Data Bank (GENE-TOX), 2018).
Activity calls are given as the source filed them. No rule for the calls is given here.

System: GENE-TOX genotoxicity assays, various organisms and cells
Assay: GENE-TOX mutagenicity studies
[1] = Species/Cell Type: Human, Assay Type: Sister-chromatid exchange (SCE) in vitro, Assay Code: SC1+, Evaluation Type: Evaluation B (Post-1980)
[2] = Species/Cell Type: Salmonella typhimurium (one or more of the five standard strains: TA98, TA100, TA1535, TA1537, and TA1538), Assay Type: Histidine reverse gene mutation, Ames assay, Assay Code: SAL-, Evaluation Type: Evaluation A (Pre-1980)
[3] = Species/Cell Type: Bacillus subtilis (H17 vs M45), Assay Type: Rec-assay, spot test, DNA effects (bacterial DNA repair), Assay Code: REW+, Evaluation Type: Evaluation A (Pre-1980)
[4] = Species/Cell Type: Escherichia coli WP2, Assay Type: Tryptophan reverse gene mutation, Assay Code: WP2+, Evaluation Type: Evaluation A (Pre-1980)
[5] = Species/Cell Type: Escherichia coli WP2 UVRA, Assay Type: Tryptophan reverse gene mutation, Assay Code: WPU+, Evaluation Type: Evaluation A (Pre-1980)
[6] = Species/Cell Type: Nonhuman, Assay Type: Sister-chromatid exchange (SCE) in vitro, Assay Code: SC2+D, Dose Response: With dose response, Evaluation Type: Evaluation B (Post-1980)
[7] = Species/Cell Type: Salmonella typhimurium (one or more of the five standard strains: TA98, TA100, TA1535, TA1537, and TA1538), Assay Type: Histidine reverse gene mutation, Ames assay, Assay Code: SAL+, Evaluation Type: Evaluation A (Pre-1980)
[8] = Species/Cell Type: Mouse, Sex: Male, Assay Type: Sperm morphology, Assay Code: SPI-, Evaluation Type: Evaluation A (Pre-1980)
[9] = Species/Cell Type: Rodents, Sex: Male, Assay Type: Dominant lethal test, Assay Code: DLT-, Evaluation Type: Evaluation A (Pre-1980)
[10] = Species/Cell Type: Human lymphocytes, Assay Type: Sister-chromatid exchange (SCE) in vitro, Assay Code: SCL+D, Dose Response: With dose response, Evaluation Type: Evaluation B (Post-1980)
[11] = Species/Cell Type: Human, Assay Type: Sister-chromatid exchange (SCE) in vitro, Assay Code: SC1+D, Dose Response: With dose response, Evaluation Type: Evaluation B (Post-1980)
[12] = Species/Cell Type: Salmonella typhimurium, Assay Type: Forward and reverse gene mutation, host-mediated assay, Assay Code: HMA-, Evaluation Type: Evaluation A (Pre-1980)
[13] = Species/Cell Type: Nonhuman, Assay Type: Sister-chromatid exchange (SCE) in vitro, Assay Code: SC2+, Evaluation Type: Evaluation B (Post-1980)

## CCCCCCCCCCCCCC(=O)O[C@@H]1[C@@H](C)[C@@]2(O)[C@@H](C=C(CO)C[C@]3(O)C(=O)C(C)=C[C@@H]23)[C@@H]2C(C)(C)[C@]12OC(C)=O
Species/Cell Type: Chinese hamster lung (V79) cells, Assay Type: Forward gene mutation at the HPRT or ouabain locus, Assay Code: V79-, Evaluation Type: Evaluation A (Pre-1980)
  mutagenic call: inactive; negative
Species/Cell Type: Escherichia coli polA (W3119 vs P3478), Assay Type: Rec-assay, DNA effects (bacterial DNA repair), Assay Code: RE1T, Evaluation Type: Evaluation A (Pre-1980)
  mutagenic call: no conclusion
Species/Cell Type: Fischer rat embryo (RLV/1706) cells, Assay Type: Cell transformation, viral enhanced, Assay Code: CTR-, Evaluation Type: Evaluation A (Pre-1980)
  mutagenic call: inactive; negative
[1]
  mutagenic call: active; positive
Species/Cell Type: Mouse (C3H/10T1/2) cells, Assay Type: Cell transformation, Assay Code: CTH-, Evaluation Type: Evaluation A (Pre-1980)
  mutagenic call: inactive; negative
Species/Cell Type: Nonhuman, Assay Type: Sister-chromatid exchange (SCE) in vitro, Assay Code: SC2+, Evaluation Type: Evaluation A (Pre-1980)
  mutagenic call: active; positive
Species/Cell Type: Nonhuman, Assay Type: Sister-chromatid exchange (SCE) in vitro, Assay Code: SC2T, Evaluation Type: Evaluation B (Post-1980)
  mutagenic call: no conclusion
Species/Cell Type: Saccharomyces cerevisiae, Assay Type: Mitotic recombination or gene conversion, Assay Code: YEH-, Evaluation Type: Evaluation A (Pre-1980)
  mutagenic call: inactive; negative
[2]
  mutagenic call: inactive; negative
Species/Cell Type: Syrian hamster embryo (SHE) cells, Assay Type: Cell transformation, clonal assay, Assay Code: CTC-, Evaluation Type: Evaluation A (Pre-1980)
  mutagenic call: inactive; negative

## NNCCO
[3]
  mutagenic call: active; positive
[4]
  mutagenic call: active; positive
[5]
  mutagenic call: active; positive
[6]
  mutagenic call: active; positive
[7]
  mutagenic call: active; positive

## [Cl][Sb]([Cl])([Cl])([Cl])[Cl]
[3]
  mutagenic call: active; positive

## NC(=O)N1c2ccccc2[C@H](O)[C@@H](O)c2ccccc21
Species/Cell Type: Human lymphocytes, Assay Type: Sister-chromatid exchange (SCE) in vitro, Assay Code: SCL+, Evaluation Type: Evaluation B (Post-1980)
  mutagenic call: active; positive
[1]
  mutagenic call: active; positive

## O=C1C=CCO1
Species/Cell Type: Bacillus subtilis (H17 vs M45), Assay Type: Rec-assay, spot test, DNA effects (bacterial DNA repair), Assay Code: REW-, Evaluation Type: Evaluation A (Pre-1980)
  mutagenic call: inactive; negative

## COc1cc2c(c3oc(=O)c4c(c13)CCOC4=O)C1CC(O)OC1O2 (stereo unspecified)
Species/Cell Type: Salmonella typhimurium (one or more of the five standard strains: TA98, TA100, TA1535, TA1537, and TA1538), Assay Type: Histidine reverse gene mutation, Ames assay, Assay Code: SALT, Evaluation Type: Evaluation A (Pre-1980)
  mutagenic call: no conclusion

## FC1(F)C(F)(F)C(F)(F)C1(F)F
Species/Cell Type: Drosophila melanogaster, Assay Type: Sex-linked recessive lethal gene mutation, Assay Code: SRLT, Evaluation Type: Evaluation A (Pre-1980)
  mutagenic call: no conclusion

## CN(C)N
Species/Cell Type: Human diploid fibroblasts, Assay Type: Unscheduled DNA synthesis (UDS) in vitro, DNA effects, Assay Code: UDH-*, Activation: With metabolic activation, Evaluation Type: Evaluation A (Pre-1980)
  mutagenic call: inactive; negative
Species/Cell Type: Mammalian polychromatic erythrocytes, Assay Type: Micronucleus test, chromosome aberrations, Assay Code: MNTT, Evaluation Type: Evaluation A (Pre-1980)
  mutagenic call: no conclusion
Species/Cell Type: Mouse lymphoma (L5178Y) cells, Assay Type: Forward gene mutation at the thymidine kinase (TK) locus, chromosome aberrations, Assay Code: L51-*, Activation: With metabolic activation, Evaluation Type: Evaluation A (Pre-1980)
  mutagenic call: inactive; negative
[8]
  mutagenic call: inactive; negative
Species/Cell Type: Nonhuman, Assay Type: In vivo carcinogenicity studies, Assay Code: CCG+, Evaluation Type: Evaluation A (Pre-1980)
  call: active; positive
[9]
  mutagenic call: inactive; negative
Species/Cell Type: Saccharomyces cerevisiae, Assay Type: Mitotic recombination or gene conversion, Assay Code: YEC-, Evaluation Type: Evaluation A (Pre-1980)
  mutagenic call: inactive; negative
Species/Cell Type: Salmonella typhimurium (one or more of the five standard strains: TA98, TA100, TA1535, TA1537, and TA1538), Assay Type: Histidine reverse gene mutation, Ames assay, Assay Code: SAL+*, Activation: With metabolic activation, Evaluation Type: Evaluation A (Pre-1980)
  mutagenic call: active; positive
Species/Cell Type: Syrian hamster embryo (SA7/SHE) cells, Assay Type: Cell transformation, viral enhanced, Assay Code: CT7+, Evaluation Type: Evaluation A (Pre-1980)
  mutagenic call: active; positive

## O=[Se]=O
[3]
  mutagenic call: active; positive
[10]
  mutagenic call: active; positive
[11]
  mutagenic call: active; positive
Species/Cell Type: Nonhuman, Assay Type: Sister-chromatid exchange (SCE) in vitro, Assay Code: SC2-, Evaluation Type: Evaluation B (Post-1980)
  mutagenic call: inactive; negative

## Clc1ccc(C(c2ccccc2Cl)C(Cl)Cl)cc1 (stereo unspecified)
Species/Cell Type: Nonhuman, Assay Type: Chromosome aberrations in vitro, Assay Code: CY&+, Evaluation Type: Evaluation A (Pre-1980)
  mutagenic call: active; positive

## CCC1(c2ccccc2)C(=O)NC(=O)N(C(=O)c2ccccc2)C1=O (stereo unspecified)
Species/Cell Type: Rodents, Sex: Male, Assay Type: Dominant lethal test, Assay Code: DLTT, Evaluation Type: Evaluation A (Pre-1980)
  mutagenic call: no conclusion
[12]
  mutagenic call: inactive; negative

## Oc1ccc(N=Nc2ccccc2)cc1
[2]
  mutagenic call: inactive; negative

## NCC(O)CCl (stereo unspecified)
[9]
  mutagenic call: inactive; negative

## C[C@@H]1[C@H](O)[C@@H](C)/C=C/C=C/CC/C=C/C=C/C=C/C=C/C(O[C@H]2O[C@H](C)[C@@H](O)[C@H](N)[C@@H]2O)CC2O[C@](O)(CC(O)C(O)CCC(O)CC(O)CC(O)CC(=O)O[C@H]1C)CC(O)C2C(=O)O (stereo partly specified)
Species/Cell Type: Neurospora crassa, Assay Type: Aneuploidy, chromosome aberrations, Assay Code: NEN-, Evaluation Type: Evaluation A (Pre-1980)
  mutagenic call: inactive; negative

## Cc1cc(C)c(S(=O)(=O)O)cc1N=Nc1cc(S(=O)(=O)O)c2ccccc2c1O
Species/Cell Type: Bacillus subtilis (H17 vs M45), Assay Type: Rec-assay, spot test, DNA effects (bacterial DNA repair), Assay Code: REWT, Evaluation Type: Evaluation A (Pre-1980)
  mutagenic call: no conclusion
Species/Cell Type: Bacillus subtilis (H17 vs M45T), Assay Type: Rec-assay, spot test, DNA effects (bacterial DNA repair), Assay Code: REXT, Evaluation Type: Evaluation A (Pre-1980)
  mutagenic call: no conclusion
[2]
  mutagenic call: inactive; negative

## CC(=O)N(O)c1ccc(-c2ccccc2)cc1
Species/Cell Type: Human diploid fibroblasts, Assay Type: Unscheduled DNA synthesis (UDS) in vitro, DNA effects, Assay Code: UDH+, Evaluation Type: Evaluation A (Pre-1980)
  mutagenic call: active; positive
[13]
  mutagenic call: active; positive

## O=C1c2cccc(O)c2C(=O)c2c(NCCNCCO)ccc(NCCNCCO)c21
[13]
  mutagenic call: active; positive

## C=Cc1cccc(C)c1
[10]
  mutagenic call: active; positive
[11]
  mutagenic call: active; positive

## O=C(O)[C@@H]1CCCN1
[12]
  mutagenic call: inactive; negative

## Nc1ccc(I)cc1
[8]
  mutagenic call: inactive; negative

## CCCCN(COC(C)=O)N=O
[7]
  mutagenic call: active; positive
Species/Cell Type: Syrian hamster embryo (SHE) cells, Assay Type: Cell transformation, clonal assay, Assay Code: CTC+, Evaluation Type: Evaluation A (Pre-1980)
  mutagenic call: active; positive

## CNC(=O)C(C)SCCSP(=O)(OC)OC (stereo unspecified)
[3]
  mutagenic call: active; positive
[4]
  mutagenic call: active; positive
[5]
  mutagenic call: active; positive
[6]
  mutagenic call: active; positive
[7]
  mutagenic call: active; positive

## c1cc2c(cc1CC1CO1)OCO2 (stereo unspecified)
[7]
  mutagenic call: active; positive

## CCCN(CCC)C(=O)SCC (tested in a mixture with another compound)
Species/Cell Type: Zea mays (corn), Assay Type: Gene mutation, Assay Code: ZEM-, Evaluation Type: Evaluation A (Pre-1980)
  mutagenic call: inactive; negative

## C=C1C[C@@]23CC[C@H]4[C@@](C)(CCC[C@@]4(C)C(=O)O[C@@H]4O[C@H](CO)[C@@H](O)[C@H](O)[C@H]4O)[C@@H]2CC[C@]1(O[C@@H]1O[C@H](CO)[C@@H](O)[C@H](O)[C@H]1O[C@@H]1O[C@H](CO)[C@@H](O)[C@H](O)[C@H]1O)C3
Species/Cell Type: Human, Assay Type: Sister-chromatid exchange (SCE) in vitro, Assay Code: SC1T, Evaluation Type: Evaluation B (Post-1980)
  mutagenic call: no conclusion

## CCN(CCCl)CCCNc1c2ccccc2nc2c1ccc1cccnc12
Species/Cell Type: Chinese hamster ovary (CHO) cells, Assay Type: Forward gene mutation at the HPRT locus, Assay Code: CHO+, Evaluation Type: Evaluation B (Post-1980)
  mutagenic call: active; positive
